Data from US20200017496A1 (priority 2017, published 2020).
Where two headings read alike, the source gives them in different places.

Assays:
Assay in all cases: MIC of compounds alone and combined with antibacterials, broth microdilution (CLSI)
Type in all cases: cell-based
[1] = system: Serratia marcescens (SMA) isolates; conditions: for MIC: Serratia marcescens
Procedure: (§1) Method 2: MIC of Compounds Alone and Combined with Antibacterials Against Bacterial Isolates.
(§2) Compounds of the present invention were assessed against genotyped bacterial strains (Table 3, 4) alone or in combination with an antibacterial (Table 2). […] Log phase bacterial suspensions were adjusted to a final density of 5·10^5 CFU/mL in cation-adjusted Mueller-Hinton broth (ca-MHB; Becton-Dickinson and Company) and added to each well (98 μL). Microplates were incubated for 16-20 h at 35° C. in ambient air. The MIC of the compounds was defined as the lowest concentration of said compounds that prevented bacterial growth as read by visual inspection. The MIC of ATB at each compound concentration was defined as the lowest concentration of ATB that prevented bacterial growth as read by visual inspection.

[2] = system: Citrobacter freundii (CFR) isolates; conditions: for MIC: Citrobacter freundii, ATB alone, read-out: MIC
Procedure: as §1, §2

[3] = system: Providencia rettgeri (PRE) isolates; conditions: for MIC: Providencia rettgeri, ATB alone; for MIC ATB in combination: strain PRE UFR236
Procedure: as §1, §2

[4] = system: Morganella morganii (MMO) isolates
Procedure: as §1, §2

For CC(C)(O/N=C(\C(=O)N[C@@H]1C(=O)N2C(C(=O)[O-])=C(C[n+]3ccccc3)CS[C@H]12)c1csc(N)n1)C(=O)O [CAZ, Ceftazidime], the “MIC ATB in combination” value ([1]; SMA UFR30, AF1 @ 4 μg/mL) was “<=0.25 μg/mL”, the “MIC ATB in combination” value ([1]; SMA UFR30, AF1 @ 8 μg/mL) was “<=0.25 μg/mL” and the “MIC ATB in combination” value ([1]; SMA UFR134, AF1 @ 8 μg/mL) was “<=0.25 μg/mL”. For the same compound, the “MIC ATB in combination” value ([1]; SMA UFR135, AF1 @ 4 μg/mL) was 2 µg/mL, the “MIC ATB in combination” value ([1]; SMA UFR135, AF1 @ 8 μg/mL) was 1 µg/mL and the “MIC ATB in combination” value ([1]; SMA UFR136, AF1 @ 4 μg/mL) was 2 µg/mL. The “MIC ATB in combination” value ([1]; SMA UFR136, AF1 @ 8 μg/mL) was 1 µg/mL, the “MIC ATB in combination” value ([1]; SMA UFR137, AF1 @ 4 μg/mL) was “<=0.25 μg/mL” and the “MIC ATB in combination” value ([1]; SMA UFR137, AF1 @ 8 μg/mL) was “<=0.25 μg/mL”. For the same compound, the “MIC ATB in combination” value ([1]; SMA UFR138, AF1 @ 4 μg/mL) was “<=0.25 μg/mL”, the “MIC ATB in combination” value ([1]; SMA UFR138, AF1 @ 8 μg/mL) was “<=0.25 μg/mL” and the “MIC ATB in combination” value ([1]; SMA UFR139, AF1 @ 4 μg/mL) was “<=0.25 μg/mL”. The “MIC ATB in combination” value ([1]; SMA UFR139, AF1 @ 8 μg/mL) was “<=0.25 μg/mL”, the “MIC ATB in combination” value ([1]; SMA UFR141, AF1 @ 8 μg/mL) was “<=0.25 μg/mL” and the “MIC ATB in combination” value ([1]; SMA UFR239, AF1 @ 4 μg/mL) was 8 µg/mL. For the same compound, the “MIC ATB in combination” value ([1]; SMA UFR239, AF1 @ 8 μg/mL) was 4 µg/mL, the MIC [1] was > 256 µg/mL and the MIC ([1]; strain SMA UFR30 (OXA-405), ATB alone, read-out: MIC) was 8 µg/mL. For the same compound, the MIC ([1]; strain SMA UFR134 (TEM-1, BES-1), ATB alone, read-out: MIC) was 8 µg/mL, the MIC ([1]; strain SMA UFR135 (TEM-1, KPC-2), ATB alone, read-out: MIC) was 32 µg/mL and the MIC ([1]; strain SMA UFR138 (SME-1), ATB alone, read-out: MIC) was ≤ 0.25 µg/mL. The MIC ([1]; strain SMA UFR139 (SME-2), ATB alone, read-out: MIC) was ≤ 0.25 µg/mL, the MIC ([1]; strain SMA UFR141 (OXA-48), ATB alone, read-out: MIC) was 1 µg/mL and the MIC ([1]; strain SMA UFR239 (ESAC), ATB alone, read-out: MIC) was 32 µg/mL. For the same compound, the “MIC ATB in combination” value ([1]; strain SMA UFR238, antibacterial combined with AF1 @ 8 μg/mL) was “<=0.25 μg/mL”, the “MIC ATB in combination” value ([2]; CFR UFR10, AF1 @ 4 μg/mL) was “<=0.25 μg/mL” and the “MIC ATB in combination” value ([2]; CFR UFR10, AF1 @ 8 μg/mL) was “<=0.25 μg/mL”. The “MIC ATB in combination” value ([2]; CFR UFR11, AF1 @ 4 μg/mL) was 8 µg/mL, the “MIC ATB in combination” value ([2]; CFR UFR11, AF1 @ 8 μg/mL) was 0.5 µg/mL and the “MIC ATB in combination” value ([2]; CFR UFR83, AF1 @ 4 μg/mL) was 32 µg/mL. For the same compound, the “MIC ATB in combination” value ([2]; CFR UFR83, AF1 @ 8 μg/mL) was 8 µg/mL, the “MIC ATB in combination” value ([2]; CFR UFR146, AF1 @ 4 μg/mL) was 4 µg/mL and the “MIC ATB in combination” value ([2]; CFR UFR146, AF1 @ 8 μg/mL) was 2 µg/mL. For the same compound, the “MIC ATB in combination” value ([2]; CFR UFR248, AF1 @ 4 μg/mL) was “<=0.25 μg/mL”, the “MIC ATB in combination” value ([2]; CFR UFR248, AF1 @ 8 μg/mL) was “<=0.25 μg/mL” and the “MIC ATB in combination” value ([2]; CFR UFR249, AF1 @ 4 μg/mL) was “<=0.25 μg/mL”. For the same compound, the “MIC ATB in combination” value ([2]; CFR UFR249, AF1 @ 8 μg/mL) was “<=0.25 μg/mL”, the “MIC ATB in combination” value ([2]; CFR UFR250, AF1 @ 4 μg/mL) was 0.5 µg/mL and the “MIC ATB in combination” value ([2]; CFR UFR250, AF1 @ 8 μg/mL) was “<=0.25 μg/mL”. The MIC ([2]; strain CFR UFR11 (TEM-1, OXA-1, OXA-48)) was 8 µg/mL, the MIC ([2]; strain CFR UFR146 (TEM-1, KPC-2)) was 32 µg/mL and the “MIC ATB in combination” value ([2]; strain CFR UFR253, antibacterial combined with AF1 @ 4 μg/mL) was 4 µg/mL. The “MIC ATB in combination” value ([2]; strain CFR UFR253, antibacterial combined with AF1 @ 8 μg/mL) was 2 µg/mL, the “MIC ATB in combination” value ([2]; strain CFR UFR254, antibacterial combined with AF1 @ 4 μg/mL) was 0.5 µg/mL and the “MIC ATB in combination” value ([2]; strain CFR UFR254, antibacterial combined with AF1 @ 8 μg/mL) was “<=0.25 μg/mL”. For the same compound, the MIC ([3]; strain PRE UFR99 (OXA-1, OXA-181)) was > 256 µg/mL, the MIC ([3]; strain PRE UFR236 (TEM-1, OXA-48), read-out: MIC) was 32 µg/mL and the “MIC ATB in combination” value ([3]; antibacterial combined with AF1 @ 4 μg/mL) was 1 µg/mL. The “MIC ATB in combination” value ([3]; antibacterial combined with AF1 @ 8 μg/mL) was 0.5 µg/mL, the “MIC ATB in combination” value ([4]; MMO 200321, AF1 @ 4 μg/mL) was “<=0.25 μg/mL” and the “MIC ATB in combination” value ([4]; MMO UFR144, AF1 @ 4 μg/mL) was “<=0.25 μg/mL”. The “MIC ATB in combination” value ([4]; MMO UFR144, AF1 @ 8 μg/mL) was “<=0.25 μg/mL”.
